Reference: patent US7553966B2, “Glucocorticoid mimetics, methods of making them, pharmaceutical compositions, and uses thereof” (Boehringer Ingelheim Pharmaceuticals, Inc., priority 2002, dated 2009)

Experiments:
[1] = biological target: T1, human glucocorticoid receptor (GR) complex (Homo sapiens, UniProt P04150); experiment: Glucocorticoid Receptor Competitive Binding Assay (fluorescence polarization, TAMRA-labeled dexamethasone probe); conditions: qualitative statement; competition with TAMRA-labeled dexamethasone
T1 construct: made in house; host or cells: insect expression system (baculovirus lysate)
T1 sequence (P04150 1-777): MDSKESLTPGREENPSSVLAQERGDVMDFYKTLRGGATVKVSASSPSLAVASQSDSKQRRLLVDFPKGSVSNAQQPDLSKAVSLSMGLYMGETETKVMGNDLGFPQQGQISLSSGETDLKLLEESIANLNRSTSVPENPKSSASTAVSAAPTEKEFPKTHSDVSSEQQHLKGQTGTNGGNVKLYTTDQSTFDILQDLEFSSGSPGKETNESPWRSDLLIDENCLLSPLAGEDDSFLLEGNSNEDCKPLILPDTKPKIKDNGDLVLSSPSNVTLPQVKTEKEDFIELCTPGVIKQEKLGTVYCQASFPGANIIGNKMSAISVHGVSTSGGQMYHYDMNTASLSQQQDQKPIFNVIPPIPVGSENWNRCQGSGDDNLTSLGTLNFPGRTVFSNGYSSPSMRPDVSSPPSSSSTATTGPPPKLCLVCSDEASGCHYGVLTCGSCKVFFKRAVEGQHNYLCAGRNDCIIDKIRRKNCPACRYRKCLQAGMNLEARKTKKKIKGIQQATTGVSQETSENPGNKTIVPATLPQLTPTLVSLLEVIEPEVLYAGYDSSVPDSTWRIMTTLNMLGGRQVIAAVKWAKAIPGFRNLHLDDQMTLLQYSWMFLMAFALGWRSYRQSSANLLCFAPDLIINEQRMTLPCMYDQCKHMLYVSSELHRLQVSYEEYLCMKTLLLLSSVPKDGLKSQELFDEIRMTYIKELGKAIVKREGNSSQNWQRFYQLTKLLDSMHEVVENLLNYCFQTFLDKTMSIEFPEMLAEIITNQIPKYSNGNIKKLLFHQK
Outline: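 Competition with TAMRA-dexamethasone for a human GR complex expressed in insect cells, read by fluorescence polarization. Buffer was 10 mM TES, 50 mM KCl, 20 mM Na2MoO4, 1.5 mM EDTA, 0.04% CHAPS, 10% glycerol, 1 mM DTT, pH 7.4.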

glucocorticoid receptor = experiment: Glucocorticoid Receptor Cell Assays (agonist activity in one or more of the above assays); format: cell-based; conditions: qualitative statement; assay not specified
Procedure: B. Glucocorticoid Receptor Cell Assays
1. Induction of Aromatase in Fibroblasts (Cell Assay for Transactivation)
Dexamethasone, a synthetic ligand to the glucocorticoid receptor (GR), induces expression of aromatase in human foreskin fibroblast cells. The activity of aromatase is measured by the conversion of testosterone to estradiol in culture media.
On the day of the experiment, the media in the wells is replaced with fresh media. Cells are treated with test compounds to final concentrations of 10^−5 M to 10^−8 M, and testosterone to a final concentration of 300 ng/mL. Each well has a total volume of 100 μL. Samples are made in duplicates. Control wells include: (a) wells that receive testosterone only, and (b) wells that receive testosterone plus 2 μM of dexamethasone to provide maximum induction of aromatase. Plates are incubated at 37° C. overnight (15 to 18 hours), and supernatants are harvested at the end of incubation. […] The amount of estradiol is inversely proportional to the ELISA signals in each well. The extent of aromatase induction by test compounds is expressed as a relative percentage to dexamethasone. EC50 values of test compounds are derived by non-linear curve fitting.
2. Inhibition of IL-6 Production in Fibroblasts (Cell Assay for Transrepression)
Human foreskin fibroblast cells produce IL-6 in response to stimulation by pro-inflammatory cytokine IL-1.
On the next day, media in the wells is replaced with fresh media. Cells are treated with IL-1 (rhIL-1α, R&D Systems Cat. No. 200-LA) to a final concentration of 1 ng/mL, and with test compounds to final concentrations of 10^−5 M to 10^−8 M, in a total volume of 200 μL per well. Samples are done in duplicates. […] Positive control wells receive IL-1 only and represent maximum (or 100%) amount of IL-6 production. Plates are incubated at 37° C. overnight (15 to 18 hours), and supernatants are harvested at the end of incubation. IL-6 levels in the supernatants are determined by the ELISA kits for IL-6 (MedSystems Diagnostics GmbH, Vienna, Austria, Cat. No. BMS213TEN) according to manufacture's instructions. The extent of inhibition of IL-6 by test compounds is expressed in percentage relative to positive controls. IC50 values of test compounds are derived by non-linear curve fitting.
Evaluation of agonist or antagonist activity of compounds binding to the glucocorticoid receptor may be determined by any of the assays.
3. Modulation of Tyrosine Aminotransferase (TAT) Induction in Rat Hepatoma Cells
Testing of compounds for agonist or antagonist activity in induction of tyrosine aminotransferase (TAT) in rat hepatoma cells.
H4-II-E-C3 cells were incubated overnight in 96 well plates (20,000 cells/100 μL/well) in MEM medium containing 10% heat inactivated FBS and 1% nonessential amino acids. On the next day, cells were stimulated with the indicated concentrations of dexamethasone or test compound (dissolved in DMSO, final DMSO concentration 0.2%) for 18 hours. Control cells were treated with 0.2% DMSO. After 18 hours, the cells were lysed in a buffer containing 0.1% Triton X-100 and the TAT activity was measured in a photometric assay using tyrosine and alpha-ketoglutarate as substrates.
For measuring antagonist activity, the hepatoma cells were pre-stimulated by addition of dexamethasone (concentration ranges from 3×10^−9 M to 3×10^−8 M) shortly before the test compound was applied to the cells.
4. Modulation of MMTV-Luc Induction in HeLa Cells
Testing of compounds for agonist or antagonist activity in stimulation of MMTV-(mouse mammary tumor virus) promoter in HeLa cells.
Cells were cultured overnight in DMEM medium without phenol red, supplemented with 3% CCS (charcoal treated calf serum) and then transferred to 96 well plates (15,000 cells/100 μL/well).

Structure (SMILES) | activity in the GR binding assay [1] | activity as agonists of the glucocorticoid receptor function in one or more of the above assays (glucocorticoid receptor)
COc1ccccc1C(C)(C)CC(O)(Cc1ccnc2ccccc12)C(F)(F)F (stereo not drawn) [1,1,1-Trifluoro-4-(2-methoxyphenyl)-4-methyl-2-quinolin-4-ylmethylpentan-2-ol] | potent activity | potent agonists
CC(C)(CC(O)(Cc1cc2ccccc2[nH]1)C(F)(F)F)c1cccc(C(F)(F)F)c1 (stereo not drawn) [1,1,1-Trifluoro-2-(1H-indol-2-ylmethyl)-4-methyl-4-(3-trifluoromethylphenyl)pentan-2-ol] | potent activity | potent agonists
CC(C)(CC(O)(Cc1cc2ccncc2[nH]1)C(F)(F)F)c1ccc(F)cc1O (stereo not drawn) [5-Fluoro-2-[4,4,4-trifluoro-3-hydroxy-1,1-dimethyl-3-(1H-pyrrolo[2,3-c]pyridin-2-ylmethyl)butyl]phenol] | potent activity | potent agonists
COc1ccc(F)cc1C(C)(C)CC(O)(Cc1ccnc2cc(F)ccc12)C(F)(F)F (stereo not drawn) [1,1,1-Trifluoro-4-(5-fluoro-2-methoxyphenyl)-2-(7-fluoroquinolin-4-ylmethyl)-4-methylpentan-2-ol] | potent activity | potent agonists
COc1cc(F)ccc1C(C)(C)CC(O)(Cc1cc2ccncc2[nH]1)C(F)(F)F (stereo not drawn) [1,1,1-Trifluoro-4-(4-fluoro-2-methoxyphenyl)-4-methyl-2-(1H-pyrrolo[2,3-c]pyridin-2-ylmethyl)pentan-2-ol] | potent activity | potent agonists
Cc1ccc(F)cc1C(C)(C)CC(O)(Cc1cc2c(C)cc(C#N)cc2[nH]1)C(F)(F)F (stereo not drawn) [2-[4-(5-Fluoro-2-methylphenyl)-2-hydroxy-4-methyl-2-trifluoromethylpentyl]-4-methyl-1H-indole-6-carbonitrile] | potent activity | potent agonists
Cc1cc(C#N)cc2[nH]c(CC(O)(CC(C)(C)c3cc(F)ccc3O)C(F)(F)F)cc12 (stereo not drawn) [2-[4-(5-Fluoro-2-hydroxyphenyl)-2-hydroxy-4-methyl-2-trifluoromethylpentyl]-4-methyl-1H-indole-6-carbonitrile] | potent activity | potent agonists
CC(C)(CC(O)(Cc1cc2ccncc2[nH]1)C(F)(F)F)c1ccccc1 (stereo not drawn) [1,1,1-Trifluoro-4-methyl-4-phenyl-2-(1H-pyrrolo[2,3-c]pyridin-2-ylmethyl)pentan-2-ol] | potent activity | potent agonists
Cc1cc(C)c2[nH]c(CC(O)(CC(C)(C)c3cc(F)ccc3O)C(F)(F)F)nc2c1 (stereo not drawn) [2-[3-(5,7-Dimethyl-1H-benzoimidazol-2-ylmethyl)-4,4,4-trifluoro-3-hydroxy-1,1-dimethylbutyl]-4-fluorophenol] | potent activity | potent agonists
CC(C)(CC(O)(Cc1ccnc2ccccc12)C(F)(F)F)c1ccccc1 (stereo not drawn) [1,1,1-Trifluoro-4-methyl-4-phenyl-2-quinolin-4-ylmethylpentan-2-ol] | potent activity | potent agonists
Cc1cc(C#N)cc2[nH]c(CC(O)(CC(C)(C)c3cccc(F)c3)C(F)(F)F)cc12 (stereo not drawn) [2-[4-(3-Fluorophenyl)-2-hydroxy-4-methyl-2-trifluoromethylpentyl]-4-methyl-1H-indole-6-carbonitrile] | potent activity | potent agonists
CC(C)(CC(O)(Cc1ccnc2ccccc12)C(F)(F)F)c1cc(Br)cc2c1OCC2 (stereo not drawn) [4-(5-Bromo-2,3-dihydrobenzofuran-7-yl)-1,1,1-trifluoro-4-methyl-2-quinolin-4-ylmethylpentan-2-ol] | potent activity | potent agonists
CC(C)(CC(O)(Cc1cc2ccccc2[nH]1)C(F)(F)F)c1cccc2c1OCC2 (stereo not drawn) [4-(2,3-dihydrobenzofuran-7-yl)-1,1,1-trifluoro-2-(1H-indol-2-ylmethyl)-4-methylpentan-2-ol] | potent activity | potent agonists
Cc1cccc2[nH]c(CC(O)(CC(C)(C)c3cccc(F)c3)C(F)(F)F)cc12 (stereo not drawn) [1,1,1-Trifluoro-4-(3-fluorophenyl)-4-methyl-2-(4-methyl-1H-indol-2-ylmethyl)pentan-2-ol] | potent activity | potent agonists
Cc1ccc(F)cc1C(C)(C)CC(O)(Cc1cc2ccccc2[nH]1)C(F)(F)F (stereo not drawn) [1,1,1-Trifluoro-4-(5-fluoro-2-methylphenyl)-2-(1H-indol-2-ylmethyl)-4-methylpentan-2-ol] | potent activity | potent agonists
Cc1ccc(F)cc1C(C)(C)CC(O)(Cc1cc2cc(C#N)ccc2[nH]1)C(F)(F)F (stereo not drawn) [2-[4-(5-Fluoro-2-methylphenyl)-2-hydroxy-4-methyl-2-trifluoromethylpentyl]-1H-indole-5-carbonitrile] | potent activity | potent agonists
COc1ccc(F)cc1C(C)(C)CC(O)(Cc1[nH]c2cnccc2c1C)C(F)(F)F (stereo not drawn) [1,1,1-Trifluoro-4-(5-fluoro-2-methoxyphenyl)-4-methyl-2-(3-methyl-1H-pyrrolo[2,3-c]pyridin-2-ylmethyl)pentan-2-ol] | potent activity | potent agonists
Cc1cccc2[nH]c(CC(O)(CC(C)(C)c3ccc(F)cc3)C(F)(F)F)cc12 (stereo not drawn) [1,1,1-Trifluoro-4-(4-fluorophenyl)-4-methyl-2-(4-methyl-1H-indol-2-ylmethyl)pentan-2-ol] | potent activity | potent agonists
